Source: patent US10703764B2, “Benzopiperazine compositions as BET bromodomain inhibitors” (FORMA Therapeutics, Inc., priority 2013, dated 2020)

Columns and labels:
BRD4 BD2 = molecular target: T1, BRD4 BD2 (Homo sapiens, UniProt O60885); assay: AlphaScreen binding assay, BRD4 Bromodomain 2
T1 construct: made in house
Summary of the method: (§1)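 Compound dilution series were mixed with His-tagged BRD4 bromodomain and biotinylated tetra-acetylated H4 (1-21) peptide at pH 7.3 (BD1 and peptide at 50 nM, BD2 and peptide at 100 nM). Donor and acceptor beads were then added, and plates were equilibrated at least 1 h before reading. IC50 values were fitted with a four-parameter logistic model.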

BRD4 BD1 = molecular target: T2, BRD4 BD1 (Homo sapiens, UniProt O60885); assay: AlphaScreen binding assay, BRD4 Bromodomain 1
T2 construct: made in house
Summary of the method: as §1

IC50 (BRD4 BD2) [nM] | IC50 (BRD4 BD1) [nM] | Structure (SMILES)
50 to 500 | 1000 to 10000 | COC(=O)N1c2ccc(-c3ccc(S(=O)(=O)CCN)cc3)cc2N(C(=O)C2CC2)C[C@@H]1C [Example I-461]
50 to 500 | 1000 to 10000 | COC(=O)N1c2ccc(-c3ccc(S(=O)(=O)CCO)cc3)cc2N(C(=O)C2CC2)C[C@@H]1C [Example I-462]
50 to 500 | 1000 to 10000 | COC(=O)N1c2ccc(-c3ccc(C(=O)NCCN)cc3)cc2N(C(=O)C2CC2)C[C@@H]1C [Example I-463]
50 to 500 | 1000 to 10000 | COC(=O)N1c2ccc(-c3cn(C)nn3)cc2N(C(=O)C2CC2)C[C@@H]1C [Example I-464]
> 500 | 100 to 1000 | CC(C)OC(=O)N1C[C@H](C)N(C(=O)C2CC2)c2ccc(-c3ccc(C(=O)NCCN)cc3)cc21 [Example I-481]
> 500 | 100 to 1000 | COC(=O)N1c2ccc(-c3ccc(N4CCCS4(=O)=O)cc3)cc2N(C(=O)OC(C)C)C[C@@H]1C [Example I-484]
> 500 | 100 to 1000 | COC(=O)N1c2ccc(-c3ccc(CS(N)(=O)=O)cc3)cc2N(C(=O)OC(C)C)C[C@@H]1C [Example I-487]
50 to 500 | 100 to 1000 | COC(=O)N1c2ccc(-c3ccc(S(=O)(=O)CCN)cc3)cc2N(C(=O)OC(C)C)C[C@@H]1C [Example I-488]
> 500 | 1000 to 10000 | COC(=O)N1c2ccc(-c3ccc(C(=O)NCCN)cc3)cc2N(C(=O)OC(C)C)C[C@@H]1C [Example I-489]
50 to 500 | 1000 to 10000 | CC(=O)N1c2ccc(-c3ncco3)cc2N(C(=O)c2ccco2)C[C@@H]1C [Example I-491]
< 50 | 100 to 1000 | CC(=O)N1c2ccc(-c3ccc(N(C)S(C)(=O)=O)cc3)cc2N(C(=O)c2ccco2)C[C@@H]1C [Example I-492]
> 500 | 1000 to 10000 | CC(=O)N1c2ccc(-c3ccc(S(C)(=O)=O)cc3)cc2N(C(=O)OC2COC2)C[C@@H]1C [Example I-497]
50 to 500 | 1000 to 10000 | COc1ccc(OC(=O)N2C[C@H](C)N(C(C)=O)c3ccc(-c4cnn(C5CC5)c4)cc32)c(Cl)c1 [Example I-505]
50 to 500 | 1000 to 10000 | CC(=O)N1c2ccc(-c3cnn(C4CC4)c3)cc2N(C(=O)Oc2cccnc2C)C[C@@H]1C [Example I-514]
50 to 500 | 1000 to 10000 | CC(=O)N1c2ccc(-c3cnn(C4CC4)c3)cc2N(C(=O)Oc2ccc(C)cc2C)C[C@@H]1C [Example I-516]
50 to 500 | 1000 to 10000 | CC(=O)N1c2ccc(-c3cnn(C4CC4)c3)cc2N(C(=O)Oc2cncc(C)c2)C[C@@H]1C [Example I-520]
50 to 500 | 1000 to 10000 | CC(=O)N1c2ccc(-c3cnn(C4CC4)c3)cc2N(C(=O)Oc2cncc3ccccc23)C[C@@H]1C [Example I-525]
50 to 500 | 1000 to 10000 | CC(=O)N1c2ccc(-c3cnn(C4CC4)c3)cc2N(C(=O)Oc2ccc(C#N)cc2Cl)C[C@@H]1C [Example I-528]
50 to 500 | 1000 to 10000 | COc1ccc(Cl)c(OC(=O)N2C[C@H](C)N(C(C)=O)c3ccc(-c4cnn(C5CC5)c4)cc32)c1 [Example I-531]
50 to 500 | 1000 to 10000 | CC(=O)N1c2ccc(-c3ccc(C(=O)Nc4ccccc4)cc3)cc2N(C(=O)OC(C)C)C[C@@H]1C [Example I-535]
> 500 | 1000 to 10000 | COC(=O)N1c2ccc(-c3ccc(C(=O)NCc4ncco4)cc3)cc2N(C(=O)OC(C)C)C[C@@H]1C [Example I-583]

IC50 (BRD4 BD2) [nM] | IC50 (BRD4 BD1) [nM] | Structure (SMILES)
> 500 | 1000 to 10000 | CC(C)OC(=O)N1C[C@H](C)N(C(=O)C2CC2)c2ccc(-c3ccc(C(=O)NCc4ncco4)cc3)cc21 [Example I-585]
50 to 500 | 1000 to 10000 | CC(C)OC(=O)N1C[C@H](C)N(C(=O)C2CC2)c2ccc(-c3cnn(CC(=O)N(C)C4CC4)c3)cc21 [Example I-610]
> 500 | 1000 to 10000 | CC(C)OC(=O)N1C[C@H](C)N(C(=O)C2CC2)c2ccc(-c3cnn(CCNS(C)(=O)=O)c3)cc21 [Example I-613]
50 to 500 | 1000 to 10000 | CC(C)OC(=O)N1C[C@H](C)N(C(=O)C2CC2)c2ccc(-c3cnn(CC(=O)N4CCCCC4)c3)cc21 [Example I-614]
> 500 | 1000 to 10000 | CC(C)OC(=O)N1C[C@H](C)N(C(=O)C2CC2)c2ccc(-c3cnn(CC#N)c3)cc21 [Example I-622]
50 to 500 | 1000 to 10000 | COC(=O)N1c2ccc(-c3cnn(CC(=O)N4CCCCC4)c3)cc2N(C(=O)OC(C)C)C[C@@H]1C [Example I-629]
> 500 | 1000 to 10000 | COC(=O)N1c2ccc(-c3cnn(CC4CCC4)c3)cc2N(C(=O)OC(C)C)C[C@@H]1C [Example I-635]
> 500 | 1000 to 10000 | COC(=O)N1c2ccc(-c3cnn(CC#N)c3)cc2N(C(=O)OC(C)C)C[C@@H]1C [Example I-639]
> 500 | 1000 to 10000 | COC(=O)N1c2ccc(-c3cnn(CCN(C)C)c3)cc2N(C(=O)OC(C)C)C[C@@H]1C [Example I-645]
> 500 | 1000 to 10000 | CC(C)OC(=O)N1C[C@H](C)N(C(=O)C2CC2)c2ccc(-c3cnn(CCN(C)C)c3)cc21 [Example I-646]
50 to 500 | 1000 to 10000 | CC(=O)N1c2ccc(-c3cnn(C(C)(C)C(N)=O)c3)cc2N(C(=O)C2CC2)C[C@@H]1C [Example I-648]
50 to 500 | 1000 to 10000 | CC(=O)N1c2ccc(-c3cnn(CC(N)=O)c3)cc2N(C(=O)C2CC2)C[C@@H]1C [Example I-655]
50 to 500 | 1000 to 10000 | CC(=O)N1c2ccc(-c3cnn(CC(=O)N(C)C4CC4)c3)cc2N(C(=O)C2CC2)C[C@@H]1C [Example I-658]
50 to 500 | 1000 to 10000 | CC(=O)N1c2ccc(-c3cnn(CCN4CCCC4=O)c3)cc2N(C(=O)C2CC2)C[C@@H]1C [Example I-660]
50 to 500 | 1000 to 10000 | CC(=O)N1c2ccc(-c3cnn(CC(=O)N4CCCCC4)c3)cc2N(C(=O)C2CC2)C[C@@H]1C [Example I-661]
50 to 500 | 1000 to 10000 | CC(=O)N1c2ccc(-c3cnn(CC(=O)N4CCC4)c3)cc2N(C(=O)C2CC2)C[C@@H]1C [Example I-672]
50 to 500 | 1000 to 10000 | CC(=O)N1c2ccc(-c3cnn(CCC(N)=O)c3)cc2N(C(=O)C2CC2)C[C@@H]1C [Example I-674]
50 to 500 | 1000 to 10000 | CC(=O)N1c2ccc(-c3cnn(CC#N)c3)cc2N(C(=O)C2CC2)C[C@@H]1C [Example I-675]
> 500 | 1000 to 10000 | CC(=O)N1c2ccc(-c3cnn(CC(=O)O)c3)cc2N(C(=O)C2CC2)C[C@@H]1C [Example I-676]
50 to 500 | 1000 to 10000 | CCNC(=O)Cn1cc(-c2ccc3c(c2)N(C(=O)C2CC2)CC(C)N3C(C)=O)cn1 (stereo not shown) [Example I-681]
50 to 500 | 1000 to 10000 | CC(=O)N1c2ccc(-c3cnn(CC(=O)N(C)C)c3)cc2N(C(=O)C2CC2)C[C@@H]1C [Example I-683]

IC50 (BRD4 BD2) [nM] | IC50 (BRD4 BD1) [nM] | Structure (SMILES)
50 to 500 | 100 to 1000 | CC(=O)N1c2ccc(-c3cnn(CC4CCS(=O)(=O)CC4)c3)cc2N(C(=O)C2CC2)C[C@@H]1C [Example I-684]
50 to 500 | 1000 to 10000 | COC(=O)N1c2ccc(-c3cnn(C[C@@H]4CCNC4)c3)cc2N(C(=O)OC(C)C)C[C@@H]1C [Example I-691]
> 500 | > 10000 | CC(=O)N1c2ccccc2N(C(=O)CCN(C)C)C[C@@H]1C [Example I-693]
> 500 | > 10000 | CC(=O)N1c2ccccc2N(C(=O)c2ccccc2)C[C@@H]1C [Example I-694]
> 500 | > 10000 | CC(=O)N1c2ccccc2N(C(=O)Cc2ccccc2)C[C@@H]1C [Example I-695]
> 500 | > 10000 | CC(=O)N1c2ccccc2N(C(=O)CCc2ccccc2)C[C@@H]1C [Example I-696]
> 500 | > 10000 | CC(=O)N1c2ccccc2N(C(=O)C2CCCCC2)C[C@@H]1C [Example I-697]
> 500 | > 10000 | COc1ccc(CC(=O)N2C[C@H](C)N(C(C)=O)c3ccccc32)cc1 [Example I-698]
> 500 | > 10000 | COc1cccc(CC(=O)N2C[C@H](C)N(C(C)=O)c3ccccc32)c1 [Example I-699]
> 500 | > 10000 | COCCC(=O)N1C[C@H](C)N(C(C)=O)c2ccccc21 [Example I-700]
> 500 | > 10000 | CC(=O)N1c2ccccc2N(C(=O)c2ccc3c(c2)OCO3)C[C@@H]1C [Example I-701]
> 500 | > 10000 | COc1ccccc1C(=O)N1C[C@H](C)N(C(C)=O)c2ccccc21 [Example I-702]
> 500 | > 10000 | CC(=O)N1c2ccccc2N(C(=O)c2ccc(-c3ccccc3)cc2)C[C@@H]1C [Example I-703]
> 500 | > 10000 | CC(=O)N1c2ccccc2N(C(=O)c2ccncc2)C[C@@H]1C [Example I-704]
> 500 | > 10000 | CC(=O)N1c2ccccc2N(C(=O)c2csc(C)n2)C[C@@H]1C [Example I-705]
> 500 | > 10000 | CC(=O)N1c2ccccc2N(C(=O)CC2CCOCC2)C[C@@H]1C [Example I-706]
> 500 | > 10000 | CC(=O)N1c2ccccc2N(C(=O)Cc2ccc(-c3ccccc3)cc2)C[C@@H]1C [Example I-707]
> 500 | > 10000 | CC(=O)N1c2ccccc2N(C(=O)CC(C)C)C[C@@H]1C [Example I-708]
> 500 | > 10000 | CC(=O)N1c2ccccc2N(C(=O)Cc2ccc3c(c2)OCO3)C[C@@H]1C [Example I-709]
> 500 | > 10000 | CC(=O)N1c2ccccc2N(C(=O)Cc2cccc(C(F)(F)F)c2)C[C@@H]1C [Example I-710]
